Measurements taken from ChEMBL document CHEMBL1146455, “New geranyl stilbenes from Dalea purpurea with in vitro opioid receptor affinity” (J Nat Prod, 2004).

Assay: Displacement of [3H]naloxone from opioid receptor in Sprague-Dawley rat striatal membrane by scintillation spectrophotometry
Design: species or system Striatum

Row | Structure (SMILES) | Ki [µM]
1 | CC(C)=CCc1cc(O)c(O)c(CC=C(C)C)c1[C@H]1Oc2c(CC=C(C)C)c(O)cc(O)c2C(=O)[C@@H]1O [PETALOSTEMUMOL] | > 100
2 | CC(C)=CCC/C(C)=C/Cc1c(O)cc(O)cc1/C=C/c1ccc(O)c(O)c1CC=C(C)C [PAWHUSKIN A] | 0.29
3 | CC(C)=CCC/C(C)=C/Cc1c(O)cc(/C=C/c2ccc(O)c(O)c2)cc1O [PAWHUSKIN C] | 4.2
4 | CC(C)=CCCC1(C)C=Cc2c(O)cc(/C=C/c3ccc(O)c(O)c3)cc2O1 (centres undefined) [PAWHUSKIN B] | 11.4
